Test results: PubChem BioAssay AID1745844 (Carcinogenic Potency Database (CPDB), 2022)
Activity calls are given as the source filed them. How the calls were made is not given here.

Test system: rodent lifetime carcinogenesis bioassay, tumor incidence TD50
Experiment: chronic cancer bioassays in animals – CPDB, compiled studies (AID 1745844)
Details: in drinking water

C=CC(N)=O
TD50 (rat, strain Fischer 344, females, site: brain, lesion: astrocytoma, dosed 104 weeks, study length 104 weeks): 38.8 mg/kg/day
TD50 (rat, strain Fischer 344, females, site: brain, lesion: astrocytoma, dosed 107 weeks, study length 107 weeks): 71.8 mg/kg/day
TD50 (rat, strain Fischer 344, females, site: brain, lesion: oligodendroglioma, dosed 104 weeks, study length 104 weeks): 259 mg/kg/day
TD50 (rat, strain Fischer 344, females, site: central nervous system, lesion: astrocytoma, dosed 104 weeks, study length 104 weeks): 19.5 mg/kg/day
TD50 (rat, strain Fischer 344, females, site: central nervous system, lesion: glial tumors (oligodendroglioma and astrocytoma), dosed 104 weeks, study length 104 weeks): 17.3 mg/kg/day
TD50 (rat, strain Fischer 344, females, site: central nervous system, lesion: glial tumors (oligodendroglioma and astrocytoma), dosed 107 weeks, study length 107 weeks): 57.2 mg/kg/day
TD50 (rat, strain Fischer 344, females, site: clitoral gland, lesion: adenoma, dosed 104 weeks, study length 104 weeks): 19 mg/kg/day
TD50 (rat, strain Fischer 344, females, site: mammary gland, lesion: adenocarcinoma, dosed 104 weeks, study length 104 weeks): 17.6 mg/kg/day
TD50 (rat, strain Fischer 344, females, site: mammary gland, lesion: adenocarcinoma, dosed 107 weeks, study length 107 weeks): 100 mg/kg/day
TD50 (rat, strain Fischer 344, females, site: mammary gland, lesion: benign tumor, dosed 104 weeks, study length 104 weeks): 4.21 mg/kg/day
TD50 (rat, strain Fischer 344, females, site: mammary gland, lesion: fibroadenoma, dosed 104 weeks, study length 104 weeks): 8.73 mg/kg/day
TD50 (rat, strain Fischer 344, females, site: mammary gland, lesion: fibroadenoma, dosed 107 weeks, study length 107 weeks): 9.33 mg/kg/day
TD50 (rat, strain Fischer 344, females, site: mammary gland, lesion: several types, types named in the paper, dosed 107 weeks, study length 107 weeks): 8.18 mg/kg/day
TD50 (rat, strain Fischer 344, females, site: mammary tissue, wider than the gland, lesion: fibroma, dosed 104 weeks, study length 104 weeks): 20.9 mg/kg/day
TD50 (rat, strain Fischer 344, females, site: oral cavity, lesion: squamous-cell papilloma, dosed 104 weeks, study length 104 weeks): 16.2 mg/kg/day
TD50 (rat, strain Fischer 344, females, site: spinal cord, lesion: astrocytoma, dosed 104 weeks, study length 104 weeks): 40.3 mg/kg/day
TD50 (rat, strain Fischer 344, females, site: spinal cord, lesion: astrocytoma, dosed 107 weeks, study length 107 weeks): 210 mg/kg/day
TD50 (rat, strain Fischer 344, females, site: thyroid follicle, lesion: several types, types named in the paper, dosed 104 weeks, study length 104 weeks): 19.1 mg/kg/day
TD50 (rat, strain Fischer 344, females, site: thyroid follicle, lesion: several types, types named in the paper, dosed 107 weeks, study length 107 weeks): 8.92 mg/kg/day
TD50 (rat, strain Fischer 344, females, site: thyroid gland, lesion: follicular adenocarcinoma, dosed 104 weeks, study length 104 weeks): 39.5 mg/kg/day
TD50 (rat, strain Fischer 344, females, site: thyroid gland, lesion: follicular adenocarcinoma, dosed 107 weeks, study length 107 weeks): 42.8 mg/kg/day
TD50 (rat, strain Fischer 344, females, site: thyroid gland, lesion: follicular-cell adenoma, dosed 107 weeks, study length 107 weeks): 11.7 mg/kg/day
TD50 (rat, strain Fischer 344, females, site: uterus, lesion: adenocarcinoma, dosed 104 weeks, study length 104 weeks): 26.5 mg/kg/day
TD50 (rat, strain Fischer 344, males, site: adrenal gland, lesion: pheochromocytoma, benign, dosed 104 weeks, study length 104 weeks): 18.1 mg/kg/day
TD50 (rat, strain Fischer 344, males, site: brain, lesion: astrocytoma, dosed 104 weeks, study length 104 weeks): 82.6 mg/kg/day
TD50 (rat, strain Fischer 344, males, site: brain, lesion: astrocytoma, dosed 107 weeks, study length 107 weeks): 76.8 mg/kg/day
TD50 (rat, strain Fischer 344, males, site: brain, lesion: oligodendroglioma, dosed 104 weeks, study length 104 weeks): 339 mg/kg/day
TD50 (rat, strain Fischer 344, males, site: central nervous system, lesion: astrocytoma, dosed 104 weeks, study length 104 weeks): 23.5 mg/kg/day
TD50 (rat, strain Fischer 344, males, site: central nervous system, lesion: glial tumors (oligodendroglioma and astrocytoma), dosed 104 weeks, study length 104 weeks): 24.8 mg/kg/day
TD50 (rat, strain Fischer 344, males, site: central nervous system, lesion: glial tumors (oligodendroglioma and astrocytoma), dosed 107 weeks, study length 107 weeks): 48.9 mg/kg/day
TD50 (rat, strain Fischer 344, males, site: spinal cord, lesion: astrocytoma, dosed 104 weeks, study length 104 weeks): 39.7 mg/kg/day
TD50 (rat, strain Fischer 344, males, site: spinal cord, lesion: astrocytoma, dosed 107 weeks, study length 107 weeks): 82.5 mg/kg/day
TD50 (rat, strain Fischer 344, males, site: spleen, lesion: leukemia, dosed 104 weeks, study length 104 weeks): 45.8 mg/kg/day
TD50 (rat, strain Fischer 344, males, site: thyroid follicle, lesion: several types, types named in the paper, dosed 107 weeks, study length 107 weeks): 7.35 mg/kg/day
TD50 (rat, strain Fischer 344, males, site: thyroid gland, lesion: follicular adenocarcinoma, dosed 107 weeks, study length 107 weeks): 77.2 mg/kg/day
TD50 (rat, strain Fischer 344, males, site: thyroid gland, lesion: follicular-cell adenoma, dosed 104 weeks, study length 104 weeks): 13.5 mg/kg/day
TD50 (rat, strain Fischer 344, males, site: thyroid gland, lesion: follicular-cell adenoma, dosed 107 weeks, study length 107 weeks): 7.49 mg/kg/day
TD50 (rat, strain Fischer 344, males, site: tunica vaginalis, lesion: mesothelioma, benign, dosed 107 weeks, study length 107 weeks): 9.45 mg/kg/day
TD50 (rat, strain Fischer 344, males, site: tunica vaginalis, lesion: mesothelioma, malignant, dosed 104 weeks, study length 104 weeks): 1.75 mg/kg/day

CC(O)CN(C)c1ccc(NN)nn1 (stereo not given)
TD50 (mouse, strain B6C3F1, females, site: liver, lesion: several types, types named in the paper, dosed 80 weeks, study length 123 weeks): 503 mg/kg/day (inactive)
carcinogen call (mouse, strain B6C3F1, females, site: lung, lesion: several types, types named in the paper, dosed 80 weeks, study length 123 weeks): negative (inactive)
TD50 (mouse, strain B6C3F1, males, site: liver, lesion: several types, types named in the paper, dosed 80 weeks, study length 123 weeks): 922 mg/kg/day (inactive)
carcinogen call (mouse, strain B6C3F1, males, site: lung, lesion: several types, types named in the paper, dosed 80 weeks, study length 123 weeks): negative (inactive)
TD50 (mouse, strain BALB/cLacDp, females, site: all sites, lesion: lymphoma, dosed 80 weeks, study length 123 weeks): 408 mg/kg/day (inactive)
carcinogen call (mouse, strain BALB/cLacDp, females, site: liver, lesion: hepatocellular adenoma, dosed 80 weeks, study length 123 weeks): negative (inactive)
carcinogen call (mouse, strain BALB/cLacDp, females, site: lung, lesion: several types, types named in the paper, dosed 80 weeks, study length 123 weeks): negative (inactive)

CCCCCNN
TD50 (mouse, strain Swiss albino, females, site: blood vessels, lesion: angioma, dosed 94 weeks, study length 94 weeks): 71.9 mg/kg/day
TD50 (mouse, strain Swiss albino, females, site: blood vessels, lesion: angiosarcoma, dosed 94 weeks, study length 94 weeks): 82.2 mg/kg/day
TD50 (mouse, strain Swiss albino, females, site: blood vessels, lesion: several types, types named in the paper, dosed 94 weeks, study length 94 weeks): 35.5 mg/kg/day
TD50 (mouse, strain Swiss albino, females, site: liver, lesion: several types, types named in the paper, dosed 94 weeks, study length 94 weeks): 223 mg/kg/day
TD50 (mouse, strain Swiss albino, females, site: lung, lesion: adenocarcinoma, dosed 94 weeks, study length 94 weeks): 18.7 mg/kg/day
TD50 (mouse, strain Swiss albino, females, site: lung, lesion: adenoma, dosed 94 weeks, study length 94 weeks): 7.95 mg/kg/day
TD50 (mouse, strain Swiss albino, females, site: lung, lesion: several types, types named in the paper, dosed 94 weeks, study length 94 weeks): 5.87 mg/kg/day
TD50 (mouse, strain Swiss albino, males, site: blood vessels, lesion: several types, types named in the paper, dosed 94 weeks, study length 94 weeks): 65.6 mg/kg/day
TD50 (mouse, strain Swiss albino, males, site: liver, lesion: several types, types named in the paper, dosed 94 weeks, study length 94 weeks): 271 mg/kg/day
TD50 (mouse, strain Swiss albino, males, site: lung, lesion: adenoma, dosed 94 weeks, study length 94 weeks): 30 mg/kg/day
TD50 (mouse, strain Swiss albino, males, site: lung, lesion: several types, types named in the paper, dosed 94 weeks, study length 94 weeks): 46.9 mg/kg/day

COS(C)(=O)=O
TD50 (mouse, strain RF, males, site: liver, lesion: one or several types, types not named, dosed 104 weeks, study length 104 weeks): 3980 mg/kg/day (inactive)
TD50 (mouse, strain RF, males, site: lung, lesion: adenoma, dosed 104 weeks, study length 104 weeks): 31.8 mg/kg/day
TD50 (mouse, strain RF, males, site: thymus gland, lesion: lymphoma, dosed 104 weeks, study length 104 weeks): 185 mg/kg/day
